Experiments:
[1] = system: SNB-78; assay: Clonogenic assay with CR011-vcMMAE; type: cell-based, human
Description: (§1) Cells were plated in 96-well plates and allowed to recover overnight. […] The cells were then transferred into 6-well plates and allowed to form colonies. Colonies were stained with Giemsa stain (Sigma) and counted. The surviving cell fractions were calculated based upon the ratio of the treated sample and the untreated control. The results were expressed as a percentage of control using GraphPad Prism Version 4 software.

[2] = system: XF-498; assay: Clonogenic assay with CR011-vcMMAE; type: cell-based, human
Description: as §1

[3] = system: SK-MEL-2 human melanoma xenograft; assay: SK-MEL-2 human melanoma xenograft in athymic mice; type: in vivo; conditions: observation period >200 days
[4] = system: HEK293 cells; assay: Clonogenic assay, HEK293 cells transfected with GPNMB or empty vector; type: cell-based, human; conditions: 96 hours treatment
Description: as §1
Immunoblot (FIG. 9A) and FACS (FIG. 9B) analyses confirmed that GPNMB was expressed in GPNMB/plasmid transfected cells.

[5] = system: SK-MEL-5 human melanoma xenograft; assay: SK-MEL-5 human melanoma xenograft in athymic mice; type: in vivo
Description: The tumor inhibitory activity of the CR011-MMAE immunoconjugate was measured in an anti-tumor xenograft model using athymic mice, according to published methods (see Geran et al., Cancer Chemother. Rep. 3:1-104 (1972)). […] When tumors became established (10-20 days), the animals were pair-matched into groups (n=6 mice/group), and treatment was administered by intravenous injection (tail vein).
The SK-MEL-2 human melanoma (ATCC #HTB-68) was derived from a metastatic site (skin of thigh) of a person with malignant melanoma, and the SK− MEL-5 human melanoma (ATCC #HTB-70) was derived from a metastatic site (axillary lymph node) of a person with malignant melanoma (see Fogh et al., J. Natl. Cancer Inst. 59: 221-226 (1977)). Both cell lines were obtained from the American Type Culture Collection.
The effects of treatment were monitored by repetitive tumor measurements across 2 diameters with Vernier calipers; tumor size (in mg) was calculated using a standard formula, (W^2×L)/2, assuming a specific gravity of 1.0. Tumor size and body weights were assessed twice weekly. Mice were examined daily, however, and moribund animals were humanely euthanized if clinical indications of excessive pain or distress were noted (i.e., prostration, hunched posture, paralysis/paresis, distended abdomen, ulcerations, abscesses, seizures, and/or hemorrhages) Animals with tumors exceeding 2,000 mg were removed from the study and euthanized humanely.
Soon after the commencement of treatment with paclitaxel, however, significant tumor growth inhibition was observed (P≦0.039) at day 3 after treatment began, and this anti-tumor effect continued, producing 100% growth inhibition (stasis). The responses of SK-MEL-5-bearing test animals to vinblastine and paclitaxel were short-lived. After cessation of treatment at the maximally tolerated doses, tumors resumed rapid, progressive growth.

[6] = system: HEMNLP; assay: Clonogenic assay with 1.15.1-AE; type: cell-based, human
Description: (§2) Melanoma cell lines were plated onto flat bottom 96-well tissue culture plates (Becton Dickinson, Franklin Lakes, N.J., USA). On day 2 or when cells reach ˜25% confluency, various concentrations of unconjugated and Auristatin E-conjugated 1.15.1 were added to cells. MAb 2.6.2-AE was also used as a conjugated isotype control in this study. On day 5, the cells were trypsinized, transferred to 6-well tissue culture plates and incubated at 37° C. Plates were examined daily. On days 8-10, all plates were Giemsa stained and colonies on the plates were counted.

[7] = system: A2058; assay: Clonogenic assay with 1.15.1-AE; type: cell-based, human
Description: as §2

[8] = system: MEWO; assay: Clonogenic assay with 1.15.1-AE; type: cell-based, human
Description: as §2

[9] = system: HT144; assay: Clonogenic assay with 1.15.1-AE; type: cell-based, human
Description: as §2

[10] = system: LOXIMVI; assay: Clonogenic assay with 1.15.1-AE; type: cell-based, human
Description: as §2

[11] = system: M14; assay: Clonogenic assay with 1.15.1-AE; type: cell-based, human
Description: as §2

[12] = system: SK-MEL-2 melanoma xenografts; assay: Dosing interval (schedule dependency) study, SK-MEL-2 xenograft; type: in vivo, athymic mice
Description: Nota bene: Please note that, although all 5 sets of groups in this experiment (e.g., groups 5, 6, and 7 represent one set and received 32, 8, and 2 mg/kg cumulative dose, respectively) received the same cumulative doses, the first set receiving the “bolus dose” is different from the other 4 sets. The Cmax for each group in the “bolus” set was likely four-fold higher that the Cmax for the other 4 sets (see section on pharmacokinetics for dose-linearity after i.v. administration), since 4 sets of groups received 4 treatments, whereas the first set received only one “bolus” treatment (see column 7, Table 49 below).
The aggregate responses for each set of groups, where a set is defined as 3 groups of graduated dosage levels but one dosage interval (groups 5, 6, and 7 represent 1 set, all of which were treated with a dosing interval of 1 day) are shown in FIG. 7. […] However, this effect was not significant (P<0.2904).
The original design of this study was expanded to include an examination of the effects of various dosage levels. For each set, one group of animals received a cumulative dose of 8 mg/kg, which, from previous studies employing a dosing interval of 4 days, provided consistent therapeutic effects leading to long-term tumor-free animals. In addition, cumulative doses of 2 mg/kg and 32 mg/kg were employed.

[13] = system: CG56972-expressing cancer cells; assay: Growth inhibition by CR011 with saporin-conjugated secondary antibody; type: cell-based, human; conditions: data not shown
[14] = system: SK-Mel-2 cells; assay: ADCC assay with human PBMC (DELFIA EuTDA cytotoxicity); type: cell-based; conditions: 30 to 100 fold PBMC; 2, 5, 10 μg/200 μl mAb
Description: Human PBMC were isolated from whole blood using a Ficoll-Plaque. Briefly, in a 50 mL tube, 15 mL of PBS was added to 20 mL of whole blood which was underlayed with 10 mL Ficoll-Plaque and the tube was centrifuged at 2000 RPM. Mononuclear cells were collected from the interface and washed 3 times with PBS. The ADCC assay was carried out in a 96 well plate using a fluorescence assay for cytolysis from Perkin-Elmer (DELFIAEuTDA Cytotoxic assay). The procedure is based on loading target cells with a fluorescence enhancing ligand (BATDA, bis (acetoxymethyl) terpyridine—dicarboxylate). The hydrophic ligand penetrates the membrane quickly. Within the cell the esterbonds are hydrolyzed to form a hydrophilic ligand (TDA, terpyridine—dicarboxylic acid) which can no longer pass through the membrane. After cytolysis the ligand is released and introduced to the Europium solution. The europium and the ligand form a highly fluorescent and stable chelate (EuTDA). Fluorescence intensity are recorded using excitation and emission wavelengths as λex=340 nm and λem=613 nm, respectively.

Substance	IC50 [1]	IC50 [2]	re-growth of completely regressed tumors [3]	sensitivity of GPNMB-expressing HEK293 cells vs control cells to growth-inhibition [4]	earliest significant anti-tumor effects, time after treatment began ([5]; 10 mg/kg/treatment, compared to PBS-treated controls (P=0.039))	doses at which complete regressions occurred ([5]; i.v., q4d×4)	anti-tumor effect (in words) ([5]; i.v., CR011-vcMMAE 1.25 to 20 mg/kg q4d×4, vinblastine […] q4d×4)	toxicity (mortality, body weight or weight gain) ([5]; mouse, in vivo)	Clonogenic Assay with 1.15.1-AE IC50 in ng/mL [6]	Clonogenic Assay with 1.15.1-AE IC50 in ng/mL [7]	Clonogenic Assay with 1.15.1-AE IC50 in ng/mL [8]	Clonogenic Assay with 1.15.1-AE IC50 in ng/mL [9]	Clonogenic Assay with 1.15.1-AE IC50 in ng/mL [10]	Clonogenic Assay with 1.15.1-AE IC50 in ng/mL [11]	complete regressors ([12]; 2 mg/kg cumulative dose)	complete regressions ([12]; 8 mg/kg cumulative dose, all dosing intervals (28/30))	complete regressions ([12]; cumulative dose of 32 mg/kg, all dosing intervals (30 test animals))	schedule dependency of anti-tumor effects ([12]; dosing intervals 0, 1, 4, 8, 16 days)	growth inhibition with saporin-conjugated secondary antibody (in words) [13]	cytolysis of SK-MEL-2 cells (ADCC) [14]
CR011-vcMMAE: CR011 conjugated to monomethyl auristatin E through a protease cleavable valine-citrulline linker; approx. 4 drugs per antibody	~0.45 µg/mL	approximately 215 ng/mL	did not re-grow	more sensitive	10 days	≥ 2.5 mg/kg	Substantial tumor growth inhibition, as well as tumor growth delay and complete regressions	no indication of toxicity	Inconclusive	No effect	Inconclusive	Inconclusive	No effect	Inconclusive	13%	93%	100%	not schedule-dependent	–	–
CR011: fully human monoclonal antibody that specifically binds to GPNMB; VH SEQ ID NO: 20, VL SEQ ID NO: 29	–	–	–	–	–	–	–	–	–	–	–	–	–	–	–	–	–	–	could specifically inhibit the growth	did not show any cytolysis
